Experimental data from patent publication US12637424B2, “Pharmaceutical salt of an arylpyrrole derivative” (SENTINEL ONCOLOGY LIMITED, priority 2020, dated 2026).

Key:
Experiment in all cases: DiscoverX KinomeScreen competition binding assay (kinase selectivity panel)
[1] = molecular target: T1, panel of ninety-seven kinases (Homo sapiens, UniProt P12931); conditions: SRC; screened at 3000 nM
T1 construct: purchased DiscoverX; host or cells: E. coli (BL21-derived, T7 phage display) or HEK-293
Experimental: (§1) This has been investigated by testing atropisomer A-2 for off-target activity against a panel of ninety-seven kinases distributed across the kinome at a concentration of 3 μM using the DiscoverX KinomeScreen assay. The DiscoverX KinomeScreen assay is a site-directed competition binding assay which measures the binding affinity of a compound to a kinase, by use of a solid supported control compound which can bind or capture the kinases in solution. In the absence of a kinase-inhibitor test compound, all of the kinase will bind to the solid support. If a kinase-inhibitor test compound is added to the assay mix, the amount of kinase binding to the solid support will be reduced, the extent of reduction being dependent on the potency of the test compound as a kinase inhibitor. […] For most assays, kinase-tagged T7 phage strains were grown in parallel in 24-well blocks in an E. coli host derived from the BL21 strain. E. coli were grown to log-phase and infected with T7 phage from a frozen stock (multiplicity of infection=0.4) and incubated with shaking at 32° C. until lysis (90-150 minutes). The lysates were centrifuged (6,000×g) and filtered (0.2 μm) to remove cell debris. The remaining kinases were produced in HEK-293 cells and subsequently tagged with DNA for qPCR detection. Streptavidin-coated magnetic beads were treated with biotinylated small molecule ligands for 30 minutes at room temperature to generate affinity resins for kinase assays. The liganded beads were blocked with excess biotin and washed with blocking buffer (SeaBlock (Pierce), 1% BSA, 0.05% Tween 20, 1 mM DTT) to remove unbound ligand and to reduce non-specific phage binding. […] Test compounds were prepared as 40× stocks in 100% DMSO and directly diluted into the assay. All reactions were performed in polypropylene 384-well plates in a final volume of 0.02 ml. […] The beads were then re-suspended in elution buffer (1×PBS, 0.05% Tween 20, 0.5 μM non-biotinylated affinity ligand) and incubated at room temperature with shaking for 30 minutes. The kinase concentration in the eluates was measured by qPCR. Compounds that bind the kinase active site and directly (sterically) or indirectly (allosterically) prevent kinase binding to the immobilized ligand, will reduce the amount of kinase captured on the solid support. […] The strength of binding of the test molecule to the kinase can be expressed as the percent control (% Ctrl) The compound(s) were screened at 3000 nM concentration, and results for primary screen binding interactions are reported as ‘% Ctrl’, where lower numbers indicate stronger hits in the matrix on the following page(s). [formula] • negative control=DMSO (100% Ctrl) • positive control=control compound (0% Ctrl)

[2] = molecular target: T2, panel of ninety-seven kinases (Homo sapiens, UniProt Q9UPE1); conditions: SRPK3; screened at 3000 nM
T2 construct: purchased DiscoverX; host or cells: E. coli (BL21-derived, T7 phage display) or HEK-293
Experimental: as §1

[3] = molecular target: T3, panel of ninety-seven kinases (Homo sapiens, UniProt O15111); conditions: CHUK; screened at 3000 nM
T3 construct: purchased DiscoverX; host or cells: E. coli (BL21-derived, T7 phage display) or HEK-293
Experimental: as §1

[4] = molecular target: T4, panel of ninety-seven kinases (Homo sapiens, UniProt Q15831); conditions: STK11; screened at 3000 nM
T4 construct: purchased DiscoverX; host or cells: E. coli (BL21-derived, T7 phage display) or HEK-293
Experimental: as §1

[5] = molecular target: T5, panel of ninety-seven kinases (Homo sapiens, UniProt P08069); conditions: IGF1R; screened at 3000 nM
T5 construct: purchased DiscoverX; host or cells: E. coli (BL21-derived, T7 phage display) or HEK-293
Experimental: as §1

[6] = molecular target: T6, panel of ninety-seven kinases (Homo sapiens, UniProt Q9BUB5); conditions: MKNK1; screened at 3000 nM
T6 construct: purchased DiscoverX; host or cells: E. coli (BL21-derived, T7 phage display) or HEK-293
Experimental: as §1

[7] = molecular target: T7, panel of ninety-seven kinases (Homo sapiens, UniProt P52333); conditions: JAK3; screened at 3000 nM
T7 construct: purchased DiscoverX; host or cells: E. coli (BL21-derived, T7 phage display) or HEK-293
Experimental: as §1

[8] = molecular target: T8, panel of ninety-seven kinases (Homo sapiens, UniProt P30530); conditions: AXL; screened at 3000 nM
T8 construct: purchased DiscoverX; host or cells: E. coli (BL21-derived, T7 phage display) or HEK-293
Experimental: as §1

[9] = molecular target: T9, panel of ninety-seven kinases (Homo sapiens, UniProt Q02750); conditions: MAP2K1; screened at 3000 nM
T9 construct: purchased DiscoverX; host or cells: E. coli (BL21-derived, T7 phage display) or HEK-293
Experimental: as §1

[10] = molecular target: T10, panel of ninety-seven kinases (Homo sapiens, UniProt P50750); conditions: CDK9; screened at 3000 nM
T10 construct: purchased DiscoverX; host or cells: E. coli (BL21-derived, T7 phage display) or HEK-293
Experimental: as §1

[11] = molecular target: T11, panel of ninety-seven kinases (Homo sapiens, UniProt P31751); conditions: AKT2; screened at 3000 nM
T11 construct: purchased DiscoverX; host or cells: E. coli (BL21-derived, T7 phage display) or HEK-293
Experimental: as §1

[12] = molecular target: T12, panel of ninety-seven kinases (Homo sapiens, UniProt P49841); conditions: GSK3B; screened at 3000 nM
T12 construct: purchased DiscoverX; host or cells: E. coli (BL21-derived, T7 phage display) or HEK-293
Experimental: as §1

[13] = molecular target: T13, panel of ninety-seven kinases (Homo sapiens, UniProt Q9P1W9); conditions: PIM2; screened at 3000 nM
T13 construct: purchased DiscoverX; host or cells: E. coli (BL21-derived, T7 phage display) or HEK-293
Experimental: as §1

[14] = molecular target: T14, panel of ninety-seven kinases (Homo sapiens, UniProt Q9BXA7); conditions: TSSK1B; screened at 3000 nM
T14 construct: purchased DiscoverX; host or cells: E. coli (BL21-derived, T7 phage display) or HEK-293
Experimental: as §1

[15] = molecular target: T15, panel of ninety-seven kinases (Homo sapiens, UniProt Q86UX6); conditions: STK32C; screened at 3000 nM
T15 construct: purchased DiscoverX; host or cells: E. coli (BL21-derived, T7 phage display) or HEK-293
Experimental: as §1

[16] = molecular target: T16, panel of ninety-seven kinases (Homo sapiens, UniProt P36888); conditions: FLT3; screened at 3000 nM
T16 construct: purchased DiscoverX; host or cells: E. coli (BL21-derived, T7 phage display) or HEK-293
Experimental: as §1

[17] = molecular target: T17, panel of ninety-seven kinases (Homo sapiens, UniProt O00750); conditions: PIK3C2B; screened at 3000 nM
T17 construct: purchased DiscoverX; host or cells: E. coli (BL21-derived, T7 phage display) or HEK-293
Experimental: as §1

[18] = molecular target: T18, panel of ninety-seven kinases (Homo sapiens, UniProt P04629); conditions: NTRK1; screened at 3000 nM
T18 construct: purchased DiscoverX; host or cells: E. coli (BL21-derived, T7 phage display) or HEK-293
Experimental: as §1

[19] = molecular target: T19, panel of ninety-seven kinases (Homo sapiens, UniProt P04626); conditions: ERBB2; screened at 3000 nM
T19 construct: purchased DiscoverX; host or cells: E. coli (BL21-derived, T7 phage display) or HEK-293
Experimental: as §1

[20] = molecular target: T20, panel of ninety-seven kinases (Homo sapiens, UniProt P48736); conditions: PIK3CG; screened at 3000 nM
T20 construct: purchased DiscoverX; host or cells: E. coli (BL21-derived, T7 phage display) or HEK-293
Experimental: as §1

[21] = molecular target: T21, panel of ninety-seven kinases (Homo sapiens, UniProt Q00536); conditions: CDK16; screened at 3000 nM
T21 construct: purchased DiscoverX; host or cells: E. coli (BL21-derived, T7 phage display) or HEK-293
Experimental: as §1

[22] = molecular target: T22, panel of ninety-seven kinases (Homo sapiens, UniProt P11309); conditions: PIM1; screened at 3000 nM
T22 construct: purchased DiscoverX; host or cells: E. coli (BL21-derived, T7 phage display) or HEK-293
Experimental: as §1

CN(C)CCNC(=O)c1ccc(-c2ccc(-c3ccc(Cl)cc3)n2-c2ccccc2C(F)(F)F)cc1 (single isomer, unassigned) [Atropisomer A-2]
% Ctrl @ 3 μM [1]: 100 % Ctrl
% Ctrl @ 3 μM [2]: 71 % Ctrl
% Ctrl @ 3 μM [3]: 100 % Ctrl
% Ctrl @ 3 μM [4]: 81 % Ctrl
% Ctrl @ 3 μM [5]: 100 % Ctrl
% Ctrl @ 3 μM [6]: 92 % Ctrl
% Ctrl @ 3 μM [7]: 100 % Ctrl
% Ctrl @ 3 μM [8]: 93 % Ctrl
% Ctrl @ 3 μM [9]: 84 % Ctrl
% Ctrl @ 3 μM [10]: 97 % Ctrl
% Ctrl @ 3 μM [11]: 100 % Ctrl
% Ctrl @ 3 μM [12]: 88 % Ctrl
% Ctrl @ 3 μM [13]: 100 % Ctrl
% Ctrl @ 3 μM [14]: 100 % Ctrl
% Ctrl @ 3 μM [15]: 100 % Ctrl
% Ctrl @ 3 μM [16]: 100 % Ctrl
% Ctrl @ 3 μM [17]: 100 % Ctrl
% Ctrl @ 3 μM [18]: 100 % Ctrl
% Ctrl @ 3 μM [19]: 66 % Ctrl
% Ctrl @ 3 μM [20]: 100 % Ctrl
% Ctrl @ 3 μM [21]: 100 % Ctrl
% Ctrl @ 3 μM [22]: 99 % Ctrl
